Test results reported in patent US8916702B2 (priority 2012, dated 2014).

These compounds were tested on HCV pseudoparticles (genotype 1a HCV E1 and E2 envelope, H77C isolate) (assay: microbe, parasite or virus in culture). Conditions: Hepatitis C virus, Huh-7, 48 h, HCV pseudoparticle infection of Huh7 cells, luciferase 2 days after infection; average of duplicates.
Format: cell-based

SMILES	EC50
CCOC(=O)[C@H](CCNC(=O)C(N)=O)NC(=O)c1ccc(Nc2nc(NC3(c4ccc(Cl)cc4)CC3)nc(OCC(F)(F)F)n2)cc1 [Compound 1028, (S)-ethyl 4-(2-amino-2-oxoacetamido)-2-(4-(4-(1-(4-chlorophenyl)cyclopropylamino)-6-(2,2,2-trifluoroethoxy)-1,3,5-triazin-2-ylamino)benzamido)butanoate]	0.4 nM

Same assay, conditions: Hepatitis C virus, Huh-7, 48 h, HCV pseudoparticles (genotype 1a, H77C) in Huh7 cells; average of duplicate; luciferase 2 days after infection

SMILES	EC50
COc1ncccc1NC(=O)C(=O)NCC(C)(C)CNC(=O)c1ccc(Nc2nc(NC3(c4ccc(Cl)cc4)CC3)nc(OCC(F)(F)F)n2)cc1 [Compound 3366]	0.14 nM
COC(=O)[C@H](CNC(=O)C(=O)Nc1ccc(OCCc2ccccn2)cc1)NC(=O)c1ccc(Nc2nc(NC3(c4ccc(Cl)cc4)CC3)nc(OCC(F)(F)F)n2)cc1 [Compound 3198]	1.02 nM
O=C(NCCCNC(=O)c1ccc(Nc2nc(NC3(c4ccc(Cl)cc4)CC3)nc(OCC(F)(F)F)n2)cc1)C(=O)Nc1cccc(F)c1 [Compound 3349]	0.041 nM

Same assay, conditions: Hepatitis C virus, Huh-7, 48 h, HCV pseudoparticles, Huh7 cells, luciferase 2 days after infection; average of duplicates

SMILES	EC50
CC(C)c1cccc(NC(=O)C(=O)NC[C@H](NC(=O)c2ccc(Nc3nc(NC4(c5ccc(Cl)cc5)CC4)nc(OCC(F)(F)F)n3)cc2)C(=O)O)c1 [Compound 3758]	0.54 nM
CC(O)(CNC(=O)C(N)=O)CNC(=O)c1ccc(Nc2nc(NC3(c4ccc(Cl)cc4)CC3)nc(OCC(F)(F)F)n2)cc1 (stereo not shown) [Compound 3834]	0.086 nM

Same assay, conditions: Hepatitis C virus, Huh-7, 48 h, read-out: Activity (EC50 class), HCV pseudoparticle infection of Huh7 cells, luciferase 2 days after infection; EC50 expressed as class A/B

SMILES	EC50
CC(C)(CNC(=O)C(=O)NCC1(CN2CCCC2)CC1)CNC(=O)c1ccc(Nc2nc(NC3(c4ccc(Cl)cc4)CC3)nc(OCC(F)(F)F)n2)cc1 [Compound 1036]	0.01 to 10 nM
O=C(NCc1c(F)cccc1F)C(=O)NC[C@H](NC(=O)c1ccc(Nc2nc(NC3(c4ccc(Cl)cc4)CC3)nc(OCC(F)(F)F)n2)cc1)C(=O)O [Compound 1170]	0.01 to 10 nM
COC(=O)[C@H](CNC(=O)C(=O)NC1CCCC(O)C1)NC(=O)c1ccc(Nc2nc(NC3(c4ccc(Cl)cc4)CC3)nc(OCC(F)(F)F)n2)cc1 (stereo partly shown) [Compound 1056]	0.01 to 10 nM
COC(=O)[C@H](CCNC(=O)C(=O)NCc1ccc(OC)cc1OC)NC(=O)c1ccc(Nc2nc(NC3(c4ccc(Cl)cc4)CC3)nc(OCC(F)(F)F)n2)cc1 [Compound 1147]	0.01 to 10 nM
O=C(NCC[C@H](NC(=O)c1ccc(Nc2nc(NC3(c4ccc(Cl)cc4)CC3)nc(OCC(F)(F)F)n2)cc1)C(=O)O)C(=O)NCC1CC1c1cccc2c1OCO2 (stereo partly shown) [Compound 1446]	0.01 to 10 nM
COC(=O)[C@H](CNC(=O)C(=O)Nc1ccccc1F)NC(=O)c1ccc(Nc2nc(NC3(c4ccc(Cl)cc4)CC3)nc(OCC(F)(F)F)n2)cc1 [Compound 1253]	0.01 to 10 nM
CCOC(=O)[C@H](CCCNC(=O)C(=O)N(C)C)NC(=O)c1ccc(Nc2nc(NC3(c4ccc(Cl)cc4)CC3)nc(OCC(F)(F)F)n2)cc1 [Compound 1031, (S)-ethyl 2-(4-(4-(1-(4-chlorophenyl)cyclopropylamino)-6-(2,2,2-trifluoroethoxy)-1,3,5-triazin-2-ylamino)benzamido)-5-(2-(dimethylamino)-2-oxoacetamido)pentanoate]	0.01 to 10 nM
CCOC(=O)[C@H](CCCNC(=O)C(=O)NC)NC(=O)c1ccc(Nc2nc(NC3(c4ccc(Cl)cc4)CC3)nc(OCC(F)(F)F)n2)cc1 [Compound 1030, (S)-ethyl 2-(4-(4-(1-(4-chlorophenyl)cyclopropylamino)-6-(2,2,2-trifluoroethoxy)-1,3,5-triazin-2-ylamino)benzamido)-5-(2-(methylamino)-2-oxoacetamido)pentanoate]	0.01 to 10 nM
CCOC(=O)[C@H](CCNC(=O)C(N)=O)NC(=O)c1ccc(Nc2nc(NC3(c4ccc(Cl)cc4)CC3)nc(OCC(F)(F)F)n2)cc1 [Compound 1028, (S)-ethyl 4-(2-amino-2-oxoacetamido)-2-(4-(4-(1-(4-chlorophenyl)cyclopropylamino)-6-(2,2,2-trifluoroethoxy)-1,3,5-triazin-2-ylamino)benzamido)butanoate]	0.01 to 10 nM
CC1CC(NC(=O)C(=O)NC[C@H](NC(=O)c2ccc(Nc3nc(NC4(c5ccc(Cl)cc5)CC4)nc(OCC(F)(F)F)n3)cc2)C(=O)O)CC(C)(C)C1 (stereo partly shown) [Compound 1088]	0.01 to 10 nM
COc1cccc(CNC(=O)C(=O)NCC[C@H](NC(=O)c2ccc(Nc3nc(NC4(c5ccc(Cl)cc5)CC4)nc(OCC(F)(F)F)n3)cc2)C(=O)O)c1 [Compound 1183]	0.01 to 10 nM
O=C(NC[C@H](NC(=O)c1ccc(Nc2nc(NC3(c4ccc(Cl)cc4)CC3)nc(OCC(F)(F)F)n2)cc1)C(=O)O)C(=O)NC1CCCCCC1 [Compound 1175]	0.01 to 10 nM
COC(=O)[C@H](CCNC(=O)C(=O)NCCc1ccccn1)NC(=O)c1ccc(Nc2nc(NC3(c4ccc(Cl)cc4)CC3)nc(OCC(F)(F)F)n2)cc1 [Compound 1306]	0.01 to 10 nM
COC(=O)[C@H](CCNC(=O)C(=O)Nn1cnnc1)NC(=O)c1ccc(Nc2nc(NC3(c4ccc(Cl)cc4)CC3)nc(OCC(F)(F)F)n2)cc1 [Compound 1219]	10 to 1000 nM
CC(C)(C)C1CCC(NC(=O)C(=O)NC[C@H](NC(=O)c2ccc(Nc3nc(NC4(c5ccc(Cl)cc5)CC4)nc(OCC(F)(F)F)n3)cc2)C(=O)O)CC1 (stereo partly shown) [Compound 1090]	0.01 to 10 nM
CN(C)C(=O)C(=O)NCC[C@H](NC(=O)c1ccc(Nc2nc(NC3(c4ccc(Cl)cc4)CC3)nc(OCC(F)(F)F)n2)cc1)C(=O)O [Compound 1015, (S)-2-(4-(4-(1-(4-chlorophenyl)cyclopropylamino)-6-(2,2,2-trifluoroethoxy)-1,3,5-triazin-2-ylamino)benzamido)-4-(2-(dimethylamino)-2-oxoacetamido)butanoic acid]	0.01 to 10 nM
COC(=O)[C@H](CNC(=O)C(=O)N[C@H]1C[C@H]1c1ccccc1)NC(=O)c1ccc(Nc2nc(NC3(c4ccc(Cl)cc4)CC3)nc(OCC(F)(F)F)n2)cc1 [Compound 1294]	0.01 to 10 nM
CC(C)(CNC(=O)C(=O)Nc1ccc(C(=O)O)cc1)CNC(=O)c1ccc(Nc2nc(NC3(c4ccc(Cl)cc4)CC3)nc(OCC(F)(F)F)n2)cc1 [Compound 1457]	0.01 to 10 nM

Same assay, conditions: Hepatitis C virus, Huh-7, 48 h, read-out: Activity (EC50 class), HCV pseudoparticles, Huh7 cells, luciferase 2 days after infection; average of duplicates

SMILES	EC50
O=C(NC[C@H](NC(=O)c1ccc(Nc2nc(NC3(c4ccc(Cl)cc4)CC3)nc(OCC(F)(F)F)n2)cc1)C(=O)Cl)C(=O)Nc1ccc(Cl)nc1 [Compound 3739]	0.01 to 10 nM
O=C(NC[C@H](NC(=O)c1ccc(Nc2nc(NC3(c4ccc(Cl)cc4)CC3)nc(OCC(F)(F)F)n2)cc1)C(=O)Cl)C(=O)Nc1cccc(OCc2ccccc2)c1 [Compound 3742]	0.01 to 10 nM
COC(=O)[C@H](CNC(=O)C(=O)Nc1cccc(OC(F)F)c1)NC(=O)c1ccc(Nc2nc(NC3(c4ccc(Cl)cc4)CC3)nc(OCC(F)(F)F)n2)cc1 [Compound 3708]	0.01 to 10 nM
CC(C)c1cccc(NC(=O)C(=O)NC[C@H](NC(=O)c2ccc(Nc3nc(NC4(c5ccc(Cl)cc5)CC4)nc(OCC(F)(F)F)n3)cc2)C(=O)O)c1 [Compound 3758]	0.01 to 10 nM
COC(=O)[C@H](CNC(=O)C(=O)Nc1cccc(S(=O)(=O)N2CCCCC2)c1)NC(=O)c1ccc(Nc2nc(NC3(c4ccc(Cl)cc4)CC3)nc(OCC(F)(F)F)n2)cc1 [Compound 3717]	0.01 to 10 nM
Cc1ccc(NC(=O)C(=O)NCC(C)(C)CNC(=O)c2ccc(Nc3nc(NC4(c5ccc(Cl)cc5)CC4)nc(OCc4cccc(Cl)c4)n3)cc2)cc1 [Compound 3844]	0.01 to 10 nM
CC(O)(CNC(=O)C(N)=O)CNC(=O)c1ccc(Nc2nc(NC3(c4ccc(Cl)cc4)CC3)nc(OCC(F)(F)F)n2)cc1 (stereo not shown) [Compound 3834]	0.01 to 10 nM

Same assay, conditions: Hepatitis C virus, Huh-7, read-out: Activity (EC50 class), HCV pseudoparticles (genotype 1a, H77C) in Huh7 cells; EC50 expressed as class A/B

SMILES	EC50
Cc1nnnn1-c1cc(Nc2nc(NC3(c4ccc(Cl)cc4)CC3)nc(OCC(F)(F)F)n2)ccc1C(=O)NCC(C)(C)CNC(=O)C(N)=O [Compound 3519]	0.01 to 10 nM
COc1ncccc1NC(=O)C(=O)NCC(C)(C)CNC(=O)c1ccc(Nc2nc(NC3(c4ccc(Cl)cc4)CC3)nc(OCC(F)(F)F)n2)cc1 [Compound 3366]	0.01 to 10 nM
O=C(NCC[C@H](NC(=O)c1ccc(Nc2nc(NC3(c4ccc(Cl)cc4)CC3)nc(OCC(F)(F)F)n2)cc1)C(=O)O)C(=O)Nc1ccc(OC2CCOCC2)cc1 [Compound 3546]	0.01 to 10 nM
COC(=O)/C(CCNC(=O)C(=O)Nc1ccc(OCCN2CCCCC2)nc1)=N\C(=O)c1ccc(Nc2nc(NC3(c4ccc(Cl)cc4)CC3)nc(OCC(F)(F)F)n2)cc1 [Compound 3598]	0.01 to 10 nM
CC(C)(CNC(=O)C(=O)Nc1ccc(Cl)cc1Cl)CNC(=O)c1ccc(Nc2nc(NC3(c4ccc(Cl)cc4)CC3)nc(OCC(F)(F)F)n2)cc1 [Compound 3453]	0.01 to 10 nM
COC(=O)[C@H](CCNC(=O)C(=O)Nc1ccc(-c2csc(N3CCOCC3)n2)cc1)NC(=O)c1ccc(Nc2nc(NC3(c4ccc(Cl)cc4)CC3)nc(OCC(F)(F)F)n2)cc1 [Compound 3318]	0.01 to 10 nM
CC(C)(CNC(=O)C(=O)Nc1ccc2[nH]nnc2c1)CNC(=O)c1ccc(Nc2nc(NC3(c4ccc(Cl)cc4)CC3)nc(OCC(F)(F)F)n2)cc1 [Compound 3352]	0.01 to 10 nM
COC(=O)[C@H](CNC(=O)C(=O)Nc1ccc(OCCc2ccccn2)cc1)NC(=O)c1ccc(Nc2nc(NC3(c4ccc(Cl)cc4)CC3)nc(OCC(F)(F)F)n2)cc1 [Compound 3198]	0.01 to 10 nM
COC(=O)/C(CCNC(=O)C(=O)Nc1cccc(-c2ccncc2)c1)=N\C(=O)c1ccc(Nc2nc(NC3(c4ccc(Cl)cc4)CC3)nc(OCC(F)(F)F)n2)cc1 [Compound 3591]	0.01 to 10 nM
CC(C)(CNC(=O)C(=O)Oc1cncs1)CNC(=O)c1ccc(Nc2nc(NC3(c4ccc(Cl)cc4)CC3)nc(OCC(F)(F)F)n2)cc1 [Compound 3179]	0.01 to 10 nM
CN(CCCN(C)C(=O)c1ccc(Nc2nc(NC3(c4ccc(Cl)cc4)CC3)nc(OCC(F)(F)F)n2)cc1)C(=O)C(=O)Nc1ccc(F)cc1F [Compound 3426]	0.01 to 10 nM
Cc1cc(NC(=O)C(=O)N(C)CCCNC(=O)c2ccc(Nc3nc(NC4(c5ccc(Cl)cc5)CC4)nc(OCC(F)(F)F)n3)cc2)no1 [Compound 3446]	0.01 to 10 nM
COCc1ccc(NC(=O)C(=O)NCC[C@H](NC(=O)c2ccc(Nc3nc(NC4(c5ccc(Cl)cc5)CC4)nc(OCC(F)(F)F)n3)cc2)C(=O)O)cc1 [Compound 3543]	0.01 to 10 nM
CC(C)(CNC(=O)c1ccc(Nc2nc(NC3(c4ccc(Cl)cc4)CC3)nc(OCC(F)(F)F)n2)cc1)NC(=O)C(N)=O [Compound 3420]	0.01 to 10 nM
COC(=O)[C@H](CCNC(=O)C(=O)Nc1ccc(-c2ccno2)cc1)NC(=O)c1ccc(Nc2nc(NC3(c4ccc(Cl)cc4)CC3)nc(OCC(F)(F)F)n2)cc1 [Compound 3316]	0.01 to 10 nM
CC(C)(CNC(=O)C(=O)NCc1ccc(C(=O)c2ccccc2)cc1)CNC(=O)c1ccc(Nc2nc(NC3(c4ccc(Cl)cc4)CC3)nc(OCC(F)(F)F)n2)cc1 [Compound 3404]	0.01 to 10 nM
O=C(NCCCNC(=O)c1ccc(Nc2nc(NC3(c4ccc(Cl)cc4)CC3)nc(OCC(F)(F)F)n2)cc1)C(=O)Nc1cccc(F)c1 [Compound 3349]	0.01 to 10 nM
Cc1nccn1-c1ccc(NC(=O)C(=O)NCC[C@H](NC(=O)c2ccc(Nc3nc(NC4(c5ccc(Cl)cc5)CC4)nc(OCC(F)(F)F)n3)cc2)C(=O)O)cc1 [Compound 3541]	10 to 1000 nM
